# Assay results reported in patent US8148424B2, “Tocopherols, tocotrienols, other chroman and side chain derivatives and uses thereof” (Research Development Foundation, priority 1998, dated 2012).
# Like-named read-outs stand apart in the source and are kept apart here.
# Columns and labels:
# A-549 = assay: Bioassay for apoptosis (apoptotic EC50); format: cell-based, human
# Procedure: (§1) Cells were cultured at 1.5×10^5 cells/well in 12 well plates. Cells were allowed to adhere overnight, then incubated with novel test compounds at 0.01, 0.1, 1, 5, 10 & 20 μg/mL for 1, 2 and 3 days. After treatment, cells (floating+trypsin released adherent cells) were pelleted, washed and stained with 2 μg/ml DAPI (4′,6-diamidine-2′-phenylindole dihydrochloride) in 100% methanol for 15 minutes at 37° C. and/or 3′-OH ends resulting from DNA fragmentation were detected with the TUNEL (terminal deoxynucleotidyl transferase-mediated dUTP-X 3′ nick end-labeling) technique, and then viewed using a Zeiss ICM 405 microscope. Cells whose nucleus contained clearly condensed or fragmented chromatin or stained for fragmented DNA in the TUNEL assay were scored as apoptotic. Data are presented as percent cells undergoing apoptosis.
# C-170 = assay: Bioassay for apoptosis (apoptotic EC50); format: cell-based, human; conditions: Homo sapiens, C170, C-170; unit inferred
# Procedure: as §1
# MDA-MB-435 = assay: Bioassay for apoptosis (apoptotic EC50); format: cell-based, human
# Procedure: as §1
# Jurkat = assay: Bioassay for apoptosis (apoptotic EC50); format: cell-based, human
# Procedure: as §1
# ME-180 = assay: Bioassay for apoptosis (apoptotic EC50); format: cell-based, human
# Procedure: as §1
# HT-29 = assay: Bioassay for apoptosis (apoptotic EC50); format: cell-based, human
# Procedure: as §1
# MCF-7 = assay: Bioassay for apoptosis (apoptotic EC50); format: cell-based, human
# Procedure: as §1
# HL-60 = assay: Bioassay for apoptosis (apoptotic EC50); format: cell-based, human
# Procedure: as §1
# PREC = assay: Bioassay for apoptosis (apoptotic EC50); format: cell-based; conditions: Homo sapiens, unit inferred
# Procedure: as §1
# MCF-7 cells [1] = assay: DNA synthesis arrest by 3H-uptake (Example 8); format: cell-based, human; conditions: 3H-uptake at one day treatment
# Procedure: (§2) MDA-MB-435 and MCF-7 cells at 1.5×10^5/well in 12 well plates for apoptosis and 1.5×10^4/well in 96 well plates for DNA synthesis arrest were incubated overnight in culture media and treated with α-tocopherol, α-tocotrinel, compound 1, 6-0-carboxymethyl alpha-tocotrienol (6-0-CM-α-T, 44), and vitamin E succinate (VES) at different concentrations in experimental media (2% serum for MDA-MB-435 cells and 5% serum for MCF-7 cells). DNA synthesis arrest was determined by ^3H-uptake at one day treatment and apoptosis was detected by DAPI staining at three day treatment. EC50 was calculated as the dosage of test compounds that gave 50% growth inhibition.
# MDA-MB-435 cells [2] = assay: DNA synthesis arrest by 3H-uptake (Example 8); format: cell-based, human; conditions: for EC50: MDA-MB-435, 2% serum, 3H-uptake at one day treatment
# Procedure: as §2
# MCF-7 cells [3] = assay: Apoptosis by DAPI staining (Example 8); format: cell-based, human; conditions: 5% serum, DAPI staining at three day treatment
# Procedure: as §2
# MDA-MB-435 cells [4] = assay: Apoptosis by DAPI staining (Example 8); format: cell-based, human; conditions: for EC50: MDA-MB-435, 2% serum, DAPI staining at three day treatment
# Procedure: as §2
# LnCaP = assay: Bioassay for apoptosis (apoptotic EC50); format: cell-based, human; conditions: unit not given, in µg/mL
# Procedure: as §1
# DLD-1 = assay: Bioassay for apoptosis (apoptotic EC50); format: cell-based, human; conditions: unit not given, in µg/mL
# Procedure: as §1
# DU-145 = assay: Bioassay for apoptosis (apoptotic EC50); format: cell-based, human; conditions: unit not given, in µg/mL
# Procedure: as §1
# MDA-MB-231 = assay: Bioassay for apoptosis (apoptotic EC50); format: cell-based, human; conditions: MDA-MB-231; unit not given; in µg/mL
# Procedure: as §1
# Ramos = assay: Bioassay for apoptosis (apoptotic EC50); format: cell-based, human; conditions: unit not given
# Procedure: as §1
# Myeloma = assay: Bioassay for apoptosis (apoptotic EC50); format: cell-based, human; conditions: unit not given
# Procedure: as §1
# Raji = assay: Bioassay for apoptosis (apoptotic EC50); format: cell-based, human; conditions: unit not given
# Procedure: as §1
# PC-3 = assay: Bioassay for apoptosis (apoptotic EC50); format: cell-based, human; conditions: PC-3; unit not given; in µg/mL
# Procedure: as §1
# RL-95-2 = assay: Bioassay for apoptosis (apoptotic EC50); format: cell-based, human; conditions: RL-95-2; unit not given; in µg/mL
# Procedure: as §1
# [5] = system: breast tumor cell line MDA-MB-435; assay: Bioassay for DNA synthesis arrest, naturally occurring vitamin E compounds; format: cell-based, human; conditions: Table 1
# Procedure: Table 1 provides tumor growth inhibitory properties of naturally occurring vitamin E compounds against the breast tumor cell line MDA-MB-435.
# To assay DNA synthesis, all cells were used at 2.5×10^5/ml. Cells were treated with each of the compounds at concentrations of 0.01, 0.1, 1, 5, 10 and 20 μg/mL and 200 μl of each treatment group were plated in quadruplicate in a 96 well culture plate (Corning, Corning N.Y.). Experiments were done in duplicate, one plate used for viability testing and the other plate for examination of ^3H-TdR uptake to monitor DNA synthesis. Plates were cultured for 48 hours at 37° C., 5% CO2. Eight hours prior to the end of incubation, ^3H-TdR was added to one of the duplicate plates and incubation continued for 8 hours.
# The cells were then harvested (trypsinization was required to harvest adherent cells), and isotope uptake was determined as counts per minute (cpm). For viability studies, at the end of the incubation, the cells were removed from the wells and viability checked by the Trypan Blue Exclusion method. Percent viability and percent DNA synthesis in comparison to untreated or vehicle treated cells of each treatment group were calculated.
# [6] = MDA-MB-435, Table 1, read-out: EC50 for Apoptosis
compound,measurement,setting,value
CC(C)=CCC/C(C)=C/C=C/C(C)=C/[C@]1(C)CCc2c(C)c(OCC(=O)O)c(C)c(C)c2O1 [Compound 18],EC50,"A-549; Homo sapiens, A549, unit inferred",> 20 µg/mL
same,EC50,C-170,> 20 µg/mL
same,EC50,"MDA-MB-435; Homo sapiens, MDA-MB-435, MDA-MB-435, unit inferred, read-out: apoptotic EC50",> 20 µg/mL
same,EC50,"Jurkat; Homo sapiens, unit inferred",> 20 µg/mL
same,EC50,"ME-180; Homo sapiens, ME-180, ME-180, unit inferred",> 20 µg/mL
same,EC50,"HT-29; Homo sapiens, unit inferred",> 20 µg/mL
same,EC50,"MCF-7; Homo sapiens, MCF7, MCF-7, unit inferred",> 20 µg/mL
same,EC50,"HL-60; Homo sapiens, HL-60, HL-60, unit inferred",> 20 µg/mL
same,EC50,PREC,> 20 µg/mL
CC(C)=CCC/C(C)=C/CC/C(C)=C/CC[C@]1(C)CCc2c(C)c(OCC(=O)O)c(C)c(C)c2O1 [Compound 44],EC50,"MCF-7 cells [1]; Homo sapiens, MCF7, 5% serum",5 µM
same,EC50,MDA-MB-435 cells [2]; Homo sapiens,2.5 µM
same,antitumor activity (DNA synthesis arrest) higher than alpha-tocotrienol,MDA-MB-435 cells [2]; MDA-MB-435 and MCF-7,8-12 fold
same,antitumor activity (DNA synthesis arrest) higher than compound 1,MDA-MB-435 cells [2]; MDA-MB-435 and MCF-7,4-6 fold
same,antitumor activity (DNA synthesis arrest) higher than vitamin E succinate,MDA-MB-435 cells [2]; MDA-MB-435 and MCF-7,4-7 fold
same,EC50,"MCF-7 cells [3]; Homo sapiens, MCF7, 72 h",10 µM
same,EC50,"MDA-MB-435 cells [4]; Homo sapiens, 72 h",5.6 µM
same,induction of apoptosis higher than alpha tocotrienol,MDA-MB-435 cells [4]; MDA-MB-435 and MCF-7,4-12 fold
same,induction of apoptosis higher than compound 1,MDA-MB-435 cells [4]; MDA-MB-435 and MCF-7,4-5 fold
same,induction of apoptosis higher than vitamin E succinate,MDA-MB-435 cells [4]; MDA-MB-435 and MCF-7,4-6 fold
"Cc1c(C)c2c(c(C)c1OC(=O)CCC(=O)O)CC[C@@](C)(CCC[C@H](C)CCC[C@H](C)CCCC(C)C)O2 [VES, RRR-α-tocopherol succinate, reference compound]",apoptotic EC50,LnCaP,5-10
same,apoptotic EC50,"A-549; unit not given, in µg/mL",20-30
same,apoptotic EC50,DLD-1,10-20
same,apoptotic EC50,DU-145,10-20
same,apoptotic EC50,MDA-MB-231,5-10
same,apoptotic EC50,Ramos,10-20
same,apoptotic EC50,"MDA-MB-435; MDA-MB-435, unit not given, in µg/mL",5-10
same,apoptotic EC50,"Jurkat; unit not given, in µg/mL",10-20
same,apoptotic EC50,Myeloma,10-20
same,apoptotic EC50,Raji,10-20
same,apoptotic EC50,PC-3,10-20
same,apoptotic EC50,"ME-180; ME-180, unit not given, in µg/mL",10-20
same,apoptotic EC50,RL-95-2,10-20
same,apoptotic EC50,"HT-29; unit not given, in µg/mL",5-10
same,apoptotic EC50,"MCF-7; MCF-7, unit not given, in µg/mL",10-20
same,apoptotic EC50,"HL-60; HL-60, unit not given, in µg/mL",10-20
same,EC50,MCF-7 cells [1]; 5% serum,22 µM
same,EC50,MDA-MB-435 cells [2],17 µM
same,EC50,MCF-7 cells [3],40 µM
same,EC50,MDA-MB-435 cells [4],36 µM
"Cc1c(C)c2c(c(C)c1O)CC[C@@](C)(CCC[C@H](C)CCC[C@H](C)CCCC(C)C)O2 [α-tocopherol, RRR-α-tocopherol, reference compound]",EC50,MDA-MB-435; [6],> 400 µM
same,EC50,MCF-7 cells [1]; 5% serum,> 100 µM
same,EC50,MDA-MB-435 cells [2],> 100 µM
same,EC50,MCF-7 cells [3],> 100 µM
same,EC50,MDA-MB-435 cells [4],> 100 µM
same,EC50,[5],> 400 µM
α-tocotrienol [reference compound],EC50,MDA-MB-435; [6],50 µM
same,EC50,MCF-7 cells [1]; 5% serum,40 µM
same,EC50,MDA-MB-435 cells [2],29 µM
same,EC50,MCF-7 cells [3],40 µM
same,EC50,MDA-MB-435 cells [4],66 µM
same,EC50,[5],40 µM
